pKi: −log10 of the molar value.
target: Beta-lactamase (Escherichia coli (strain K12), UniProt P00811); experiment: Beta-lactamase AmpC Inhibition Assay; details: pH 7
Description: Class C Beta-lactamase AmpC inhibition assay

Beta-lactamase, sequence (P00811 whole entry): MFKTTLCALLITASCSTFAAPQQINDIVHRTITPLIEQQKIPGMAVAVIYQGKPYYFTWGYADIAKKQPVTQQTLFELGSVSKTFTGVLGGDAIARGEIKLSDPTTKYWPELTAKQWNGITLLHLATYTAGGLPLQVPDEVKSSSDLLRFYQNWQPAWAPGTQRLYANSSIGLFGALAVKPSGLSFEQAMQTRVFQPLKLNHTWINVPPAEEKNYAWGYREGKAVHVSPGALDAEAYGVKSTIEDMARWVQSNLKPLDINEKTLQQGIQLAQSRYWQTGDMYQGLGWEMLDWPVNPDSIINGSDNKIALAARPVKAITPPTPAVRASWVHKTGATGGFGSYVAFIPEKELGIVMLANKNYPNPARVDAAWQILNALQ

O=C1c2ccccc2C(=O)N1CCc1nnn[nH]1 [CID7129233] and O=C(Nc1cccc(-c2nnn[nH]2)c1)c1cccc(F)c1 [CID8067740] are within 0.2 log units of each other in pKi: 2.48 for the first, 2.55 for the second.

Compared with CCc1c(C)[nH]n(-c2nnn[nH]2)c1=O [CID7357365], O=c1c2c3c(sc2ncn1Cc1nn[nH]n1)CCCC3 [CID 7263523] is 0.31 log units higher in pKi: 2.51 for the first, 2.82 for the second. The second binds more tightly here.

Going from C[C@@H](C(=O)O)N1C(=O)C2C3CCC(C3)C2C1=O (stereo partly specified) [CID25181259] to O=C(O)CN1C(=O)O[C@@H](c2ccccc2)C1=O [CID25181261], the pKi falls from 2.66 to 2.46 (0.20 log units). The first binds more tightly here.

Source: BindingDB's records for doi:10.1038/nchembio.155 (University of California San Francisco, 2009)
